Laboratory results published in patent US11612570B2, “Decreased adhesivity receptor-targeted nanoparticles for Fn14-positive tumors” (UNIVERSITY OF MARYLAND, BALTIMORE, priority 2014, dated 2023).

Legend:
231-Br-Luc cells = assay: In vitro cytotoxicity (MTS assay) in brain-seeking TNBC cells; format: cell-based, human; details: 24 hours' incubation
231-Luc cells = assay: In vitro cytotoxicity (MTS assay); format: cell-based, human
Procedure: For cytotoxicity assays, 231-Luc cells were cultured in 96-well plates at 5×10^3 cells/well for 24 hours. Culture media was removed and replaced with media containing various treatment groups. […] The culture media was removed after 2 hours of incubation to mimic the clearance mechanism and replaced with fresh culture media. Cell viability was then measured after 24 hours with percent viability calculated as absorbance relative to control wells (cell with culture media). A total of 3 wells were used per treatment per concentration for each experiment.

CC(=O)O[C@H]1C(=O)[C@@]2(C)[C@H]([C@H](OC(=O)c3ccccc3)[C@]3(O)C[C@H](OC(=O)[C@H](O)[C@@H](NC(=O)c4ccccc4)c4ccccc4)C(C)=C1C3(C)C)[C@]1(OC(C)=O)CO[C@@H]1C[C@@H]2O [PTX, Paclitaxel]
cell sensitivity (viability) (231-Br-Luc cells): sensitive to PTX treatment in vitro | effect on cell viability / cytotoxicity (231-Luc cells; 2 hours exposure, then fresh media for 24 hours): only a small effect on cell viability | cytotoxicity (231-Luc cells; 24 hours in culture media): more potent than Abraxane™
